Converted amounts (≈) assume the structure as drawn.

Data on 3 compounds can be found in patent publication US20230109833A1, “METABOLICALLY STABLE N-ACYLAMINOOXADIAZOLES USEFUL AS ANTIBACTERIAL AGENTS” (MICROBIOTIX, INC., priority 2017, published 2023).

For one data set, the system named is N. gonorrhoeae. The data set can be described thus: MIC (Table 2B). Format: cell-based. The following applies: Neisseria gonorrhoeae; Table 2B, strain not given; read-out: N. gonorrhoeae MIC.
The next data set has as its target T1, CYP2D6 (Homo sapiens, UniProt P10635).
T1 construct: purchased BD Gentest Corp., Woburn, Mass
The data set can be described thus: CYP450 inhibition. Format: biochemical. The note with it: 10 μM compound, Hit Profile Panel; for inhibition at 10 µM: read-out: % Inhibition, CYP450, 2D6. How it is done:
(§1) Because inhibition of cytochrome P450 (CYP450) enzymes in vitro is predictive of potential drug interactions in vivo, CYP450 inhibition was measured using commercially available Human Cytochrome P450 kits (BD Gentest Corp., Woburn, Mass.) for the major CYP450s: CYP3A4 and CYP2D6. The assays were performed according to the manufacturer's instructions.

The target of the next data set is T2, CYP3A4 (Homo sapiens, UniProt P08684).
T2 construct: purchased BD Gentest Corp., Woburn, Mass
The data set can be described thus: CYP450 inhibition. Format: biochemical. The following applies: 10 μM compound, Hit Profile Panel; for inhibition at 10 µM: read-out: % Inhibition, CYP450, 3A4. How it is done: as §1

The next data set concerns the target T3, Adrenergic α2A (Homo sapiens, UniProt P08913).
T3 sequence (P08913 1-465): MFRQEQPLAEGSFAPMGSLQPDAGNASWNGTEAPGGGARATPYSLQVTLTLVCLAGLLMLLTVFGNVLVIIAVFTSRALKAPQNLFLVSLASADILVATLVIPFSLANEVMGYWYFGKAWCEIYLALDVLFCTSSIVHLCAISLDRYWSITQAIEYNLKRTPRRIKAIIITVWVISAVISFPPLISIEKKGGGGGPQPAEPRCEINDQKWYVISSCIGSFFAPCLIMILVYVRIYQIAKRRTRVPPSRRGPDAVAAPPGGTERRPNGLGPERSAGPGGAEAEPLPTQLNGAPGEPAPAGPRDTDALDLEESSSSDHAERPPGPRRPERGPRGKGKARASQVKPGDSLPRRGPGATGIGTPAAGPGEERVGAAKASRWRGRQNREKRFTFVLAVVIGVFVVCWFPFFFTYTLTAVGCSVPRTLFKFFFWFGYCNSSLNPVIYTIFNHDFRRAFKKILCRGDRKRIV
Format: binding. The following applies: 10 μM compound, Hit Profile Panel.

The target of the next data set is Adrenergic β1 (Homo sapiens, UniProt P08588). Format: binding. The note with it: 10 μM compound, Hit Profile Panel.
A further data set addresses Cannabinoid CB1 (Homo sapiens, UniProt P21554). Format: binding. The following applies: 10 μM compound, Hit Profile Panel.
In a further data set the target is T4, Muscarinic M2 (Homo sapiens, UniProt P08172).
T4 sequence (P08172 1-466): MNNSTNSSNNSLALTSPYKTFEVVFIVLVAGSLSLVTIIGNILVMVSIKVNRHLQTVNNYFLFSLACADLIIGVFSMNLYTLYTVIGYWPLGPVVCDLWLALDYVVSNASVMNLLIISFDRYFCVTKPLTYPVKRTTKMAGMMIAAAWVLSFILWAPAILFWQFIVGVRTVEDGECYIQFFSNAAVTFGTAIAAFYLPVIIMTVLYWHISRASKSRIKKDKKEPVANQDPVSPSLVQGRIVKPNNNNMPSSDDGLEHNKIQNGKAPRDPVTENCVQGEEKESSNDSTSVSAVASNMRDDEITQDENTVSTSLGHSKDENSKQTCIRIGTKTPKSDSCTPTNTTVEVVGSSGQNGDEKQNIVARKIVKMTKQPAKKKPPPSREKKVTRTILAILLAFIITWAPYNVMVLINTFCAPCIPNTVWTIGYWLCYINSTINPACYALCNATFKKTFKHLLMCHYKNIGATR
Format: binding. The following applies: 10 μM compound, Hit Profile Panel.

Another data set relates to Nicotinic Acetylcholine. Format: binding. The following applies: human; 10 μM compound; Hit Profile Panel.
The target in another data set is Potassium Channel (KATP) (Cricetus cricetus, UniProt Q09427). Format: binding. The note with it: hamster; 10 μM compound; Hit Profile Panel.
A further data set has as its target Prostanoid EP4 (Homo sapiens, UniProt P35408). Format: binding. The following applies: 10 μM compound, Hit Profile Panel.
The next data set has as its system Rolipram. Format: binding. The following applies: rat; 10 μM compound; Hit Profile Panel.
For another data set, the target named is CYP1A2 (Homo sapiens, UniProt P05177).
The next data set addresses CYP2C19 (Homo sapiens, UniProt P33261).
The target in the next data set is CYP2C9 (Homo sapiens, UniProt P11712).
In another data set the target is hERG potassium channel (Homo sapiens, UniProt Q12809).
In a further data set the test system is 36 mammalian receptors. Format: binding. The following applies: 10 μM; every receptor of the panel.
Data set [1] is described as follows: Single dose PK (IV and PO). Format: in vivo. The note with it: mice, 10 mg/kg PO.
Data set [2] relates to MRSA strain BAA-1717 (TCH1516; USA300). The data set can be described thus: Murine efficacy, neutropenic thigh model. Format: in vivo, mouse. The following applies: 25 mg/kg PO once 2 h after infection; CFU 24 hrs post dosage; compared to untreated controls.
A short description of a further data set: Tolerability studies. Format: in vivo. The note with it: data not shown.
A further data set addresses CYP450, 1A2 (Homo sapiens, UniProt P05177). The following applies: 10 µM.
The target in another data set is CYP450, 2C19 (Homo sapiens, UniProt P33261). The following applies: 10 µM.
The target in a further data set is CYP450, 2C9 (Homo sapiens, UniProt P11712). The following applies: 10 µM.
A further data set addresses Potassium Channel hERG (Homo sapiens, UniProt Q12809). The note with it: 10 µM.

T1 sequence (P10635 whole entry): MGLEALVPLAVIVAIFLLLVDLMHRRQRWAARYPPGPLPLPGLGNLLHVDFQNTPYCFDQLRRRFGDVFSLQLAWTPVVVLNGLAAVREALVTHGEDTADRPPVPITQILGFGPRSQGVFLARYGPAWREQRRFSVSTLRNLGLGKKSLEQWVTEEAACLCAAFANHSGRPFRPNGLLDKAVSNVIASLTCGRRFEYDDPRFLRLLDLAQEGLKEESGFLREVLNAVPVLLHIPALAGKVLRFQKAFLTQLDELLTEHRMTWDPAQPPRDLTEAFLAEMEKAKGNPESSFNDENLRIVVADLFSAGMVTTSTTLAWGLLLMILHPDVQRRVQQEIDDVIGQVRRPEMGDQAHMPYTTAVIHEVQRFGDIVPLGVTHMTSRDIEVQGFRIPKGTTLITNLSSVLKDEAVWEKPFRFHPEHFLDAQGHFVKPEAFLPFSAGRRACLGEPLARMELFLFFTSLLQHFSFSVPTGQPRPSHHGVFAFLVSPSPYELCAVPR
Chain of Adrenergic β1 (P08588 whole entry): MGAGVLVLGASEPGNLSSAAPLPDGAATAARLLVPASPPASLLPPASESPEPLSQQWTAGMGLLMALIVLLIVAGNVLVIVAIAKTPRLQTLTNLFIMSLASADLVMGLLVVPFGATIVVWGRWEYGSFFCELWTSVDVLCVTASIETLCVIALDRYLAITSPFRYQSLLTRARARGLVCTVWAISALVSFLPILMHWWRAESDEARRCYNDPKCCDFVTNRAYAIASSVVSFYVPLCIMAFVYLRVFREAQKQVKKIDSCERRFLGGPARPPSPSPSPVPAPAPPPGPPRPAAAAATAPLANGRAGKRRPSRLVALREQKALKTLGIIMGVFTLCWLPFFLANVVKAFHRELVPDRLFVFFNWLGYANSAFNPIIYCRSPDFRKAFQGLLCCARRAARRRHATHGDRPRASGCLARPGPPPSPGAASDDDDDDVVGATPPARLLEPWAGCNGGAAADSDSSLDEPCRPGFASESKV
Chain of Potassium Channel (KATP) (Q09427 whole entry): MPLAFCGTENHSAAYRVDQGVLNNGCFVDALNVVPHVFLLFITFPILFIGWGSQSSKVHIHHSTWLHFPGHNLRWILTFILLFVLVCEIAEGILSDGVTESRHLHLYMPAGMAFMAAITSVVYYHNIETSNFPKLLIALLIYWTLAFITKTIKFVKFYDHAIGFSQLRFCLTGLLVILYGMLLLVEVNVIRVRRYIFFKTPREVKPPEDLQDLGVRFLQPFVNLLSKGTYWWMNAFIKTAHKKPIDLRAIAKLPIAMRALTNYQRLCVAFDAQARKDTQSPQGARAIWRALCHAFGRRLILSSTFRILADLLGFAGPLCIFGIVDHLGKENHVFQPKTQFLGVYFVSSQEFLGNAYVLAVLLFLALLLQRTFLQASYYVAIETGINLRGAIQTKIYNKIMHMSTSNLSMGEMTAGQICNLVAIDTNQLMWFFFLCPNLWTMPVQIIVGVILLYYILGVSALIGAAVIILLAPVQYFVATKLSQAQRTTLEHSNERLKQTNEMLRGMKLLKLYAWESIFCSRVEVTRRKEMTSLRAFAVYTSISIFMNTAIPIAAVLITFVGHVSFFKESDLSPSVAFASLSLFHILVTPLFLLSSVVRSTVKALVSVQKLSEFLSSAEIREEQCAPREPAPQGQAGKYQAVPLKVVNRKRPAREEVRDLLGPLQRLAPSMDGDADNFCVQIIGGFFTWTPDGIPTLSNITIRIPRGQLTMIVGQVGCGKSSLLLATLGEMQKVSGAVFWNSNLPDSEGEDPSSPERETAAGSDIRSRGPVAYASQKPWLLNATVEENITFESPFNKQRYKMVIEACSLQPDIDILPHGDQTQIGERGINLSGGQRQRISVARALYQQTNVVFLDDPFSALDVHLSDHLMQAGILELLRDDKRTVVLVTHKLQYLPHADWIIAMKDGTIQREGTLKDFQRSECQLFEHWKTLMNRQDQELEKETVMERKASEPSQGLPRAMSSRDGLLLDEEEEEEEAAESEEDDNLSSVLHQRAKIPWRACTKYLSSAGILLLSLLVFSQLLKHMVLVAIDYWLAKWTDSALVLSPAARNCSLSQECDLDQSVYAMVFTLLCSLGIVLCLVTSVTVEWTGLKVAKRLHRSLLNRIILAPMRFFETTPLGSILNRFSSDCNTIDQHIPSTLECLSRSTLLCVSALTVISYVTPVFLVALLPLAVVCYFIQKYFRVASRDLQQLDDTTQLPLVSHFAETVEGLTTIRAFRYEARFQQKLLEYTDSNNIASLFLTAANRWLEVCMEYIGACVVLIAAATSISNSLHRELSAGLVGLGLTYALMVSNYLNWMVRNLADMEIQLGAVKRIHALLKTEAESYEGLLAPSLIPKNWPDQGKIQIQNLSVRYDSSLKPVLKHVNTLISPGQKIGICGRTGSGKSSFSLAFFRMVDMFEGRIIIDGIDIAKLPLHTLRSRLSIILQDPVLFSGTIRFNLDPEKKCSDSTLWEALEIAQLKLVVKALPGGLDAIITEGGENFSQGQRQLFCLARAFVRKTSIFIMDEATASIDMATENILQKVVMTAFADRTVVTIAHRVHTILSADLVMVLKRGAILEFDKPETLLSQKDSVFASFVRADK
T2 sequence (P08684 whole entry): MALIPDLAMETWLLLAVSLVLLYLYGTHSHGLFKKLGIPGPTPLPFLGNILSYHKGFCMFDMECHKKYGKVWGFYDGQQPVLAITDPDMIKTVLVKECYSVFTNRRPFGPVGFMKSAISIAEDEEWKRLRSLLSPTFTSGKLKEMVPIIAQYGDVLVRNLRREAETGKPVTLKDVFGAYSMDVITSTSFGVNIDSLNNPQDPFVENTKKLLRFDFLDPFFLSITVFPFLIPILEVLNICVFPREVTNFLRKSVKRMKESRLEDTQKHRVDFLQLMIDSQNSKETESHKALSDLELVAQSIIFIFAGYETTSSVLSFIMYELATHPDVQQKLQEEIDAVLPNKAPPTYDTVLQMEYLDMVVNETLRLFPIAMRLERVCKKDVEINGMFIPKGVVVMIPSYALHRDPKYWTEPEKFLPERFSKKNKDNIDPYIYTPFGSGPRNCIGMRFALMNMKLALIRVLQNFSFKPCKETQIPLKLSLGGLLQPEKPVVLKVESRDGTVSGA
Chain of Cannabinoid CB1 (P21554 whole entry): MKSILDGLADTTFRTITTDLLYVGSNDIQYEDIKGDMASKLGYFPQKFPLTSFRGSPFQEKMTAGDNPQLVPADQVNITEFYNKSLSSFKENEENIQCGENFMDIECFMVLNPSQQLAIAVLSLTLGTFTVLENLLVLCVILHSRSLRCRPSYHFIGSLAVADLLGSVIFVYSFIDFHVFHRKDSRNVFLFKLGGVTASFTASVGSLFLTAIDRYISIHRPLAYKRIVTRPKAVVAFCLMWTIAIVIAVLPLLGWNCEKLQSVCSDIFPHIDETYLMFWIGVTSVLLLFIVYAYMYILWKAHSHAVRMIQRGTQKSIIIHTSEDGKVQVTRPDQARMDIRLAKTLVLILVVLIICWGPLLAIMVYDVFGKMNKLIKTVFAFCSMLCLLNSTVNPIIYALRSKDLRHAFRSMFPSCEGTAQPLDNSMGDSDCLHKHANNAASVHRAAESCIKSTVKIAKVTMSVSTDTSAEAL
Chain of Prostanoid EP4 (P35408 whole entry): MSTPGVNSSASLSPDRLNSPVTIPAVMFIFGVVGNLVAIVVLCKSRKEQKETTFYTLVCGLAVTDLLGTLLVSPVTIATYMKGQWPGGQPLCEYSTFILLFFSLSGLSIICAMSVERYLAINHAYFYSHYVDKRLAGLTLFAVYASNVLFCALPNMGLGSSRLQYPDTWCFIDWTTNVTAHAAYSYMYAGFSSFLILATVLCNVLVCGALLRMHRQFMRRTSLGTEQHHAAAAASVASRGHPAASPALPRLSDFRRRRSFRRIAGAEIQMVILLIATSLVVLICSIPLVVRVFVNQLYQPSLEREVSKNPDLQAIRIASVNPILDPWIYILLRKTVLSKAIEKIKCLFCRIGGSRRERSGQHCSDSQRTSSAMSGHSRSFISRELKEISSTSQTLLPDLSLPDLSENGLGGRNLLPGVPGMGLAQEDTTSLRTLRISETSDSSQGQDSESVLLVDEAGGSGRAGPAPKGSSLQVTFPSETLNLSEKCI
Chain of CYP2C19 (P33261 whole entry): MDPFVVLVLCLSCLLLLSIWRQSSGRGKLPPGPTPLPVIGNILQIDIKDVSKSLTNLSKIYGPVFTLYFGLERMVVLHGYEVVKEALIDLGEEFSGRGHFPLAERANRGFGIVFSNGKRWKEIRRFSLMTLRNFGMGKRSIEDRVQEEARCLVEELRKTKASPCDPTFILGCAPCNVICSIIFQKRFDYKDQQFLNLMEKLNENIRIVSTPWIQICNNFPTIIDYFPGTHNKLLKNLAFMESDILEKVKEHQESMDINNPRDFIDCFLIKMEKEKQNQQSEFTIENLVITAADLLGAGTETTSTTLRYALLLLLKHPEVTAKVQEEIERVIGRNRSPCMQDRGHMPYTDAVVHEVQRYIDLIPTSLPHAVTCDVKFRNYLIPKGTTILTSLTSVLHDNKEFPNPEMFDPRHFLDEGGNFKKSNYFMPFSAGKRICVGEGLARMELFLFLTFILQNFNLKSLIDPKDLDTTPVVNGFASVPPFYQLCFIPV
Chain of CYP1A2 (P05177 whole entry): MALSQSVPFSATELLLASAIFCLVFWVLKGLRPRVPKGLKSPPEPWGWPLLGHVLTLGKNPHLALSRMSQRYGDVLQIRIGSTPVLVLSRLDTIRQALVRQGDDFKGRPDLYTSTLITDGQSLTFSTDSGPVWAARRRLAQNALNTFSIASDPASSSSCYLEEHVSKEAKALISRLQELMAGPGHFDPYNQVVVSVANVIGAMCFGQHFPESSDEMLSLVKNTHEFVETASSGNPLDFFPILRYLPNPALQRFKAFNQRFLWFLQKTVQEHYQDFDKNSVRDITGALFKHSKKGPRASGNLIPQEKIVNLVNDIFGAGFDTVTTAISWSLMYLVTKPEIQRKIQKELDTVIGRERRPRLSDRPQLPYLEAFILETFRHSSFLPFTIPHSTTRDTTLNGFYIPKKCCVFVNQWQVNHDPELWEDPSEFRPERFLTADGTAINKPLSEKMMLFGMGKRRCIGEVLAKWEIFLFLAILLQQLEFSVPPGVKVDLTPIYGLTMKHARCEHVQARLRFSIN

In general, MIC refers to the lowest concentration that inhibits growth of the organism. For orientation: inhibition means the relative decrease from the control value, in per cent. For `O=C(Nc1nnc(-c2ccc(F)cc2)o1)c1ccc(OC2CCCCC2)cc1` [compound 4292], the MIC in the data set with N. gonorrhoeae was determined as 0.09 µg/mL (≈ 0.236 µM). For the same compound, the inhibition at 10 µM at CYP2D6 was determined as 2%; at CYP3A4 it was 4%; against Adrenergic α2A it was 3%; on Adrenergic β1, 3%; on Cannabinoid CB1 it was 11%; against Muscarinic M2, 0%. Moreover, the inhibition at 10 µM against Potassium Channel (KATP) was determined as 8%; at Prostanoid EP4 it was 28%; against CYP1A2, 5%; on CYP2C19, 9%; on CYP2C9, 10%; at hERG potassium channel, 8%. For the same compound, in the data set with Nicotinic Acetylcholine, the “% Inhibition, Nicotinic Acetylcholine” value turned out to be 1%. The “% Inhibition, Rolipram” value in the data set on Rolipram is −8%.
Take `O=C(Nc1nnc(-c2ccc(F)cc2)o1)N1CC=C(C(F)(F)F)CC1` [compound 4347]: the inhibition at 10 µM on CYP2D6 was 9%; on CYP3A4, 9%; against Adrenergic α2A it was 9%; at Adrenergic β1, 3%; at Cannabinoid CB1 it was 0%; at Muscarinic M2, 2%. Further, the inhibition at 10 µM was 2% on Potassium Channel (KATP); -4% on Prostanoid EP4; 2% against CYP1A2; 8% on CYP2C19; 4% against CYP2C9; 0% against hERG potassium channel. In the data set with 36 mammalian receptors, the “inhibition of the 36 mammalian receptors” value was less than 50%. Further, the “% Inhibition, Nicotinic Acetylcholine” value with Nicotinic Acetylcholine is listed as −4%. Moreover, the “% Inhibition, Rolipram” value in the data set with Rolipram was −6%.
On to `O=C(Nc1nnc(-c2ccc(F)cc2)o1)N1CCc2ccccc2C1` [MBX-4132], for which the “% Inhibition, CYP450, 2D6” value on CYP2D6 was determined as 10%. Besides, the “% Inhibition, CYP450, 3A4” value at CYP3A4 is recorded as 7%. Further, the “bioavailability, available from oral dosing” value in data set [1] is given as greater than 75%. In addition, the “drop in CFU/g” value in data set [2] is listed as greater than 2 log. In addition, the “elevated single dose tolerability” value in “Tolerability studies” (100 mg/kg, PO, observed 24 h) is listed as “no effects distinct from vehicle controls”. The multidose tolerability entry in “Tolerability studies” (seven days of dosing at 25 mg/kg, SC, BID, observed 10 days) was “no effects distinct from vehicle controls”. The “% Inhibition, Adrenergic α2A” value on Adrenergic α2A is reported as 54%. In addition, on Adrenergic β1, the “% Inhibition, Adrenergic β1” value was −10%. For the same compound, the “% Inhibition, Cannabinoid CB1” value at Cannabinoid CB1 stood at 14%. The “% Inhibition, Muscarinic M2” value on Muscarinic M2 worked out at 13%. Further, the “% Inhibition, Nicotinic Acetylcholine” value with Nicotinic Acetylcholine is reported as −8%. On Potassium Channel (KATP), the “% Inhibition, Potassium Channel (KATP)” value amounted to 10%. Besides, the “% Inhibition, Prostanoid EP4” value on Prostanoid EP4 came out at 18%. Besides, the “% Inhibition, Rolipram” value with Rolipram turned out to be 2%. The “% Inhibition, CYP450, 1A2” value on CYP450, 1A2 stood at 9%. Also, the “% Inhibition, CYP450, 2C19” value on CYP450, 2C19 stood at 44%. The “% Inhibition, CYP450, 2C9” value on CYP450, 2C9 is listed as 10%. The “% Inhibition, Potassium Channel hERG” value on Potassium Channel hERG is given as 64%.
